Patent US7576093B2, “Method of treatment of bone-related disorders or conditions” (AstraZeneca AB, priority 2006, dated 2009)

What was measured:
[1] = system: Sprague Dawley rats; assay: Trabecular bone mineral density of femur metaphysis by peripheral quantitative computed tomography after 14 days oral dosing; format: in vivo, rat; conditions: male Sprague Dawley rats, oral gavage 14 days, 3 μmol/kg twice daily or 30 μmol/kg once daily, every second or every fourth day; FIG. 5a-5c
Protocol: In a separate rat study, the effect of the compound 3-amino-6-[4-(4-methylpiperazin-1-yl)sulfonylphenyl]-N-pyridin-3-ylpyrazine-2-carboxamide on the bone mineral density (BMD) […]. The compound was formulated as a ultrapure solution in water (pH 3.5). The Male Sprague Dawley rats were dosed during 14 days by oral gavage. The study contained 4 dose groups with different dosing regimes and a vehicle control, namely 3 μmol/kg (twice daily) or 30 μmol/kg (once daily, once every second day or once every fourth day). Plasma samples were always taken 2 hrs after the oral dose was given in the morning. After 14 days, the rats were euthanized, and their right femurs were removed. The trabecular bone density of the femur metaphyses were measured utilizing peripheral quantitative computed Tomography method.

[2] = system: osteocalcin; assay: Osteocalcin plasma levels in rats after 7 days oral dosing (ELISA); format: in vivo, rat; conditions: male Sprague Dawley rats, 30 μmol/kg/day orally for 7 days, 3 hours after last dose, vs vehicle
Protocol: (§1) In a separate rat study, the effect of the compound 3-amino-6-[4-(4-methylpiperazin-1-yl)sulfonylphenyl]-N-pyridin-3-ylpyrazine-2-carboxamide on osteocalcin levels, used as a marker for bone formation, was studied. Parathyroid hormone (PTH) and calcitonin levels were also analysed. The compound was formulated as a solution in water. Male Sprague Dawley rats were given 30 μmol/kg/day of the compound orally for 7 days and then compared to vehicle control rats. Blood samples were taken before the first drug administration at day 1, and 3 hours after the last dose at day 7. Osteocalcin plasma levels were measured using a commercial immunoassay (ELISA kit (catalogue # BT-490, Biomedical Technologies Inc. MA, USA)). Intact PTH levels were analyzed using a commercial ELISA kit (catalogue # 60-2700, Immutopics Inc. CA, USA). The calcitonin was measured in the following way, 200 μL plasma was precipitated with 1 mL acid ethanol, mixed vigorously and centrifuged for 15 min at 1500 g. The supernatant was decanted into a new tube and evaporated with a stream of nitrogen in a Turbo Vap. After reconstitution in assay buffer, calcitonin levels were analyzed using a commercial ELISA kit (catalogue # S-1197, Peninsula. Calif., USA).

[3] = system: Sprague Dawley rats; assay: Histopathology of bone in the 7-day rat study; format: in vivo; conditions: male Sprague Dawley rats, 30 μmol/kg/day orally for 7 days
[4] = system: calcitonin; assay: Calcitonin plasma levels in rats after 7 days oral dosing (ELISA); format: in vivo, rat; conditions: male Sprague Dawley rats, 30 μmol/kg/day orally for 7 days, 3 hours after last dose, vs vehicle
Protocol: as §1

[5] = system: Parathyroid hormone (PTH); assay: Intact PTH plasma levels in rats after 7 days oral dosing (ELISA); format: in vivo, rat; conditions: male Sprague Dawley rats, 30 μmol/kg/day orally for 7 days, 3 hours after last dose, vs vehicle
Protocol: as §1

[6] = system: Han Wistar rats; assay: Four-week oral rat study, light microscopy of bone sections (bone formation); format: in vivo
Protocol: The compound 3-amino-6-[4-(4-methylpiperazin-1-yl)sulfonylphenyl]-N-pyridin-3-ylpyrazine-2-carboxamide was formulated as a solution in water. Male and female Han Wistar rats were dosed by oral gavage, at dosages of 10, 30 or 60 μmol/kg/day for four weeks and compared to vehicle controls. Complete necropsies were performed and the tissues preserved in 10% formalin. The femur, femorotibial joint, sternum and hind paws were decalcified, embedded in paraffin, sectioned at 5 μm thickness and stained with hematoxylin and eosin.

[7] = target: T1, GSK3β (Mus musculus, UniProt Q9WV60); conditions: glucocorticoid-treated osteoblasts in culture, GSK3β inhibited; cited from earlier work
T1 construct: host or cells: osteoblasts in culture (endogenous protein)

[8] = rat, 60 μmol/kg for 4 weeks, vs vehicle-treated control

T1 sequence (Q9WV60 whole entry): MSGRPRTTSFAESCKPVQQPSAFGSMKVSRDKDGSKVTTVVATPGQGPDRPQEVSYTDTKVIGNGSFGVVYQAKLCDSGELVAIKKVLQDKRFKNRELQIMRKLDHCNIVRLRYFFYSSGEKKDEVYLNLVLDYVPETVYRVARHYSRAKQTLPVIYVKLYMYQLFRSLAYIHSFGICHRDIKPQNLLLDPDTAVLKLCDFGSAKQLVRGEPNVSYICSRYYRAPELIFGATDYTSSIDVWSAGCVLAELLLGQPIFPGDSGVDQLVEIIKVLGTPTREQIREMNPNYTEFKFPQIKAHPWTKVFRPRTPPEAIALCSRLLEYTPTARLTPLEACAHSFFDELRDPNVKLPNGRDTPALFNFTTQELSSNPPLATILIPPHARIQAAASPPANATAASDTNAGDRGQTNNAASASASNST

With Nc1ncc(-c2ccc(S(=O)(=O)N3CCNCC3)cc2)nc1C(=O)Nc1cccnc1 [3-amino-6-(4-piperazin-1-ylsulfonylphenyl)-N-pyridin-3-ylpyrazine-2-carboxamide] as the molecule, how does the “bone mineral density (BMD) in the trabeculae of the right femur metaphysis” value (shortened to “bone mineral density (BMD)”) [1] read?
The value was “BMD increases”.

With CN1CCN(S(=O)(=O)c2ccc(-c3cnc(N)c(C(=O)Nc4cccnc4)n3)cc2)CC1 [3-amino-6-[4-(4-methylpiperazin-1-yl)sulfonylphenyl]-N-pyridin-3-ylpyrazine-2-carboxamide] as the molecule, how does the Osteocalcin plasma levels [2] read?
Its Osteocalcin plasma levels is “significantly increased”.

And the “bone formation, histopathologically” value [3]?
The value was “increased bone formation”.

What about the calcitonin plasma levels [4] of the same molecule?
The calcitonin plasma levels was “significantly increased”.

And the PTH plasma levels [5]?
Its PTH plasma levels is “significantly increased”.

What about the “bone mineral density (BMD)” value [1] of the same molecule?
The value was “BMD increases”.

What about the “bone formation (thickened trabeculae, thickened cortical bone, periosteal hyperostosis, increased number of osteoblasts) by light microscopy” value ([6]; male and female Han Wistar rats, oral gavage 10, 30 or 60 μmol/kg/day for four weeks, all dose levels, vs vehicle) of the same molecule?
Its value is “increased bone formation”.

And the “formation of osteoid in femur (diaphysis), FIG. 1b” value [6, 8]?
Its value is “marked increase in formation of osteoid”.

What about the “formation of osteoid in femur (diaphysis), FIG. 1b (figure legend)” value [6, 8] of the same molecule?
The value was “marked increase in formation of osteoid”.

With Nc1ncc(-c2ccc(S(N)(=O)=O)cc2)nc1C(=O)Nc1cccnc1 [3-amino-N-pyridin-3-yl-6-(4-sulfamoylphenyl)pyrazine-2-carboxamide] as the molecule, how does the “bone mineral density (BMD)” value [1] read?
Its value is “BMD increases”.

Which “attenuated cell cycle and reduced c-Myc level in osteoblasts” value [7] does the source give for [Cl-].[Li+] [lithium chloride] here?
The value was “returned to normal”.
